Results reported in patent US8690865B2, “Methods and devices for thermal treatment” (Georgia Tech Research Corporation, priority 2004, dated 2014).
Where two headings read alike, the source gives them in different places.

Legend:
[1] = in vivo transport into and across skin treated with thermal treatment device; design: species or system Sprague-Dawley hairless rat; conditions: hairless rat skin treated with thermal treatment device; brief exposure to dye or over an hour to calcein solution
Procedure: (§1) The in vivo skin model is a Sprague-Dawley hairless rat, a commonly used model for human skin permeability due to the similarity of hairless rat and human skin. For initial studies, rats ARE anesthetized by intraperitoneal injection of urethane (1000 mg/kg) and treated with a thermal treatment device of the present invention. The skin is exposed either briefly to a blue tissue marking dye to visualize the size and location of pores, or exposed for over an hour to a calcein solution to image the transdermal transport process. After sacrificing the animal, skin specimens are excised and prepared for histological examination by cryostat sectioning.

[2] = skin permeability measurement in Franz diffusion cell after microheater microablation
Procedure: Microheater components are tested for use in ablation of stratum corneum and increasing barrier permeability and increased drug transport by assessing transport across cadaver skin by three different molecules. Calcein is a low molecular weight (623 Da) fluorescent molecule used to measure skin permeability by spectrofluorimetric assay and image transport pathways in skin by confocal microscopy. […] Insulin is a polypeptide (6 kDa) that will be used for comparison with in vivo studies involving insulin delivery to diabetic rats. To perform skin permeability measurements, cadaver epidermis is placed in a Franz diffusion cell at 37° C. and an array of microheaters is then positioned on the stratum corneum side and thermally activated to cause microablation. […] Every hour, or more frequently, 1 ml of receptor solution is sampled, and replaced with fresh saline, and fluorescence intensity is measured using calibrated spectrofluorometry and analyzed to determine rates of transdermal delivery.

[3] = insulin delivery through micropores in streptozotocin-diabetic rats; assay type: in vivo, rat; conditions: treated skin area exposed to Humulin-R insulin solution
Procedure: as §1
For insulin delivery studies, rats are made diabetic by intravenous injection with 100 mg/kg streptozotocin, which produces diabetes the next day due to destruction of pancreatic islet cells. Under urethane anesthesia, skin is treated with a thermal treatment device of the present invention and the treated skin area is exposed to an Humulin-R insulin solution. Blood samples are collected by tail veil laceration over time to measure glucose concentration using a FreeStyle glucose monitor to determine pharmacodynamic response and to measure insulin concentration by radioimmunoassay to determine pharmacokinetic response, after which the animal is sacrificed.

transport across cadaver skin (measured in receptor solution) [2]	Molecule	transport into micropores and across the epidermis (histological tissue sections) [1]	blood glucose (pharmacodynamic response) [3]	insulin concentration in blood (radioimmunoassay, pharmacokinetic response) [3]	transport across cadaver skin (measured in receptor solution) ([2]; cadaver epidermis, Franz diffusion cell at 37° C., after microablation by microheater array, added individually to donor compartment)
later measured in the receptor solution	O=C(O)CN(CC(=O)O)Cc1cc2c(cc1O)Oc1cc(O)c(CN(CC(=O)O)CC(=O)O)cc1C21OC(=O)c2ccccc21 [Calcein]	show transport of the molecules into the micropores and with time, transport across the epidermis			
	Insulin		response to glucose control	insulin in the blood	later measured in the receptor solution
